The results in this text go back to patent publication US20220409643A1, “ROR Gamma T Inhibitors and Topical Uses Thereof” (Dermira, inc., priority 2019, published 2022).

SMILES strings stand for the structures.

For the first test, the system named is IL17A. As to the kind of experiment: skin Resident Immune Cell Assay (sRICA), Th17 model, IL17A protein in media. In kind it is cell-based. The conditions noted are these: 100 uM solution in 1% DMSO/OD applied topically to human skin; media collected 24 hours after Th17 activation. On the procedure:
A skin Resident Immune Cell Assay (sRICA) was used to test compounds for reduction of IL-17A protein upregulation in the Th17 sRICA model. In this model, human surgical skin waste was cultured in a transwell system, with the dermis in contact with cell culture media and the stratum corneum exposed to air. To perform the assay, each human skin sample was defatted and dermatomed to 750μm. Next, 8 mm punch biopsies were obtained and placed in a membrane transwell. The transwells were inserted into culture wells with complete media, and a cocktail of cytokines and antibodies were added to promote skin resident immune cell polarization.
RORγt inhibitors were prepared as a 100 uM solution in 1% DMSO/OD. […] of the prepared topical solution was applied to sRICA wells prepared for topical drug evaluation. Drugs were allowed to penetrate the skin overnight, for up to 24 hours prior to Th17 activation. Media was collected 24 hours after Th17 activation for IL17A protein assessment. IL17A protein was evaluated using the Quanterix IL17A detection kit on the SiMoA platform (via CRO Translational Biosciences). There was significant upregulation of IL17A with Th17 activation. Each study was normalized to the % max of IL17A production (i.e. the average IL17A concentration of Th17 activated skin alone) was set to 100%, all other values (untreated no activation and treated samples) were obtained as a percentage of this. […]
A word on the inhibition: it is the change of the read-out against control, counted positive when it falls. Low values mean a response near the control, high ones a response far below the control. As for `COCc1ccc([C@@H](NC(=O)Cn2cnccc2=O)C(=O)Nc2ccc(C(C)(C)C)c(F)c2)cc1`, at 100 µM the inhibition was 72.1%.

Take `COc1ccc2c(c1)CCN(C(=O)c1cc(O)no1)[C@H]2C(=O)Nc1ccc(C(C)(C)C)c(F)c1` (stereo in doubt) [N-(4-tert-butyl-3-fluorophenyl)-2-((3-hydroxy-1,2-oxazol-5-yl)carbonyl)-6-methoxy-1,2,3,4-tetrahydroisoquinoline-1-carboxamide]: the inhibition at 100 µM was found to be 36%. In turn, `COc1ccc2c(c1)CCN(C(=O)c1cc(O)no1)[C@H]2C(=O)Nc1cc(F)c2c(c1)CCC2(C)C` (stereo in doubt) [N-(7-fluoro-1,1-dimethyl-2,3-dihydro-1H-inden-5-yl)-2-((3-hydroxy-1,2-oxazol-5-yl)carbonyl)-6-methoxy-1,2,3,4-tetrahydroisoquinoline-1-carboxamide] yielded an inhibition at 100 µM of 42.3%.

For the molecule `CCOc1ccc2c(c1)CCN(C(=O)Cc1cc(O)no1)[C@H]2C(=O)Nc1cc(F)c2c(c1)CCC2(C)C` [(1R)-6-ethoxy-N-(7-fluoro-1,1-dimethyl-2,3-dihydro-1H-inden-5-yl)-2-((3-hydroxy-1,2-oxazol-5-yl)acetyl)-1,2,3,4-tetrahydroisoquinoline-1-carboxamide], testing at 100 µM gave an inhibition of 67.9%.

`COCC(C)(C)c1c(F)cc(NC(=O)[C@H]2c3ccc(OC)cc3CCN2C(=O)c2cc(O)no2)cc1F` [(1R)-N-(3,5-difluoro-4-(1-methoxy-2-methylpropan-2-yl)phenyl)-2-((3-hydroxy-1,2-oxazol-5-yl)carbonyl)-6-methoxy-1,2,3,4-tetrahydroisoquinoline-1-carboxamide] came in with an inhibition at 100 µM of 56.2%. `COCC(C)(C)c1c(F)cc(NC(=O)[C@H]2c3ccc(OC)cc3CCN2C(=O)Cc2cc(O)no2)cc1F` [(1R)-N-(3,5-difluoro-4-(1-methoxy-2-methylpropan-2-yl)phenyl)-6-methoxy-2-((3-hydroxy-1,2-oxazol-5-yl)acetyl)-1,2,3,4-tetrahydro-isoquinoline-1-carboxamide] showed an inhibition at 100 µM of 46.3%.

The test is the same for the next values; noted with them: Homo sapiens, 24 h, 100 uM solution in 1% DMSO/OD applied topically to human skin; media collected 24 hours after Th17 activation.
`COCc1ccc([C@@H](NC(=O)Cn2ccc(=O)cc2)C(=O)Nc2ccc([Si](C)(C)C)c(F)c2)cc1` gave an inhibition at 100 µM of 78.4%. For the molecule `COc1ccc([C@H](C(=O)Nc2ccc([Si](C)(C)C)c(F)c2)N(C)C(=O)c2cc(O)no2)cc1`, the inhibition at 100 µM came out at 76.9%.

Take `CC[Si](C)(C)c1c(F)cc(NC(=O)[C@H]2c3ccc(COC)nc3CCN2C(=O)Cc2cc(O)no2)cc1F`: the inhibition at 100 µM was determined as 68.9%.

`COc1ccc([C@@H](NC(=O)c2cc(O)no2)C(=O)Nc2ccc([Si](C)(C)C)c(F)c2)cc1`: the inhibition at 100 µM came to 55.3%.

With `COCc1ccc([C@@H](NC(=O)CNC(C)=O)C(=O)Nc2ccc([Si](C)(C)C)c(F)c2)cc1`, the inhibition at 100 µM was 48.8%.

The molecule `COCc1ccc([C@@H](NC(=O)Cn2c(=O)cc[nH]c2=O)C(=O)Nc2ccc([Si](C)(C)C)c(F)c2)cc1` yielded an inhibition at 100 µM of 40.7%. On the same count and under the same terms, the result for `COCc1ccc([C@@H](NC(=O)C2CNC(=O)C2)C(=O)Nc2ccc([Si](C)(C)C)c(F)c2)cc1` (stereo in doubt) [(3R)-N-((1R)-2-((3-fluoro-4-(trimethylsilyl)phenyl)amino)-1-(4-(methoxymethyl)phenyl)-2-oxoethyl)-5-oxopyrrolidine-3-carboxamide] reads 75.7%; that for `CN(C(=O)c1cc(O)no1)[C@@H](C(=O)Nc1cc(F)c([Si](C)(C)C)c(F)c1)C1CCOCC1` (stereo in doubt) [N-(2-((3,5-difluoro-4-(trimethylsilyl)phenyl)amino)-2-oxo-1-(tetrahydro-2H-pyran-4-yl)ethyl)-3-hydroxy-N-methyl-1,2-oxazole-5-carboxamide], 82.5%; that for `COc1ccc2c(c1)CCN(C(=O)c1cc(O)no1)[C@H]2C(=O)Nc1ccc([Si](C)(C)C)c(F)c1` (stereo in doubt) [N-(3-fluoro-4-(trimethylsilyl)phenyl)-2-((3-hydroxy-1,2-oxazol-5-yl)carbonyl)-6-methoxy-1,2,3,4-tetrahydroisoquinoline-1-carboxamide], 7.69%. The molecule `COCc1ccc([C@@H](NC(=O)C2CCN(C(C)=O)CC2)C(=O)Nc2ccc([Si](C)(C)C)c(F)c2)cc1` [1-acetyl-N-((1R)-2-((3-fluoro-4-(trimethylsilyl)phenyl)amino)-1-(4-(methoxymethyl)phenyl)-2-oxoethyl)piperidine-4-carboxamide] returned an inhibition at 100 µM of 77.5%. Take `COc1ccc2c(c1)CCN(C(=O)CCCC(=O)O)[C@H]2C(=O)Nc1cc(F)c([Si](C)(C)C)c(F)c1` [5-((1R)-1-((3,5-difluoro-4-(trimethylsilyl)phenyl)carbamoyl)-6-methoxy-3,4-dihydroisoquinolin-2(1H)-yl)-5-oxopentanoic acid]: the inhibition at 100 µM came to 76.6%. On the same count and under the same terms, with `COCc1ccc2c(c1)CCN(C(=O)CCCC(=O)O)[C@H]2C(=O)Nc1cc(F)c([Si](C)(C)C)c(F)c1` [5-((1R)-1-((3,5-difluoro-4-(trimethylsilyl)phenyl)carbamoyl)-6-methoxymethyl-3,4-dihydroisoquinolin-2(1H)-yl)-5-oxopentanoic acid] the figure was 77.4%.

`COCc1ccc2c(c1)CCN(C(=O)CCCC(=O)O)[C@H]2C(=O)Nc1ccc([Si](C)(C)C)c(F)c1` [5-((1R)-1-((3-fluoro-4-(trimethylsilyl)phenyl)carbamoyl)-6-(methoxymethyl)-3,4-dihydroisoquinolin-2(1H)-yl)-5-oxopentanoic acid] gave an inhibition at 100 µM of 51.1%. Turning to `COc1ccc2c(n1)CCN(C(=O)CCCC(=O)O)[C@H]2C(=O)Nc1ccc([Si](C)(C)C)c(F)c1` [5-((5R)-5-((3-fluoro-4-(trimethylsilyl)phenyl)carbamoyl)-2-methoxy-7,8-dihydro-1,6-naphthyridin-6(5H)-yl)-5-oxopentanoic acid], the inhibition at 100 µM is 51.5%. As for `CC[Si](C)(C)c1c(F)cc(NC(=O)[C@H]2c3ccc(OC)nc3CCN2C(=O)CCCC(=O)O)cc1F` [5-((5R)-5-((4-(ethyl(dimethyl)silyl)-3,5-difluorophenyl)carbamoyl)-2-methoxy-7,8-dihydro-1,6-naphthyridin-6(5H)-yl)-5-oxopentanoic acid], at 100 µM the inhibition was 41.9%.

Regarding `COCc1ccc([C@@H](NC(=O)CCCC(=O)O)C(=O)Nc2cc(F)c([Si](C)(C)C)c(F)c2)cc1` [5-(((1R)-2-((3,5-difluoro-4-(trimethylsilyl)phenyl)amino)-1-(4-(methoxymethyl)phenyl)-2-oxoethyl)amino)-5-oxopentanoic acid], the inhibition at 100 µM is 26.7%. On to `COc1ccc2c(c1)CCN(C(=O)Cc1cc(O)no1)[C@H]2C(=O)Nc1cc(F)c([Si](C)(C)C)c(F)c1` [(1R)-N-(3,5-difluoro-4-(trimethylsilyl)phenyl)-2-((3-hydroxy-1,2-oxazol-5-yl)acetyl)-6-methoxy-1,2,3,4-tetrahydroisoquinoline-1-carboxamide], for which the inhibition at 100 µM amounted to 49.2%. Same read-out and setting: the result for `COc1ccc2c(c1)CCN(C(=O)Cc1cc(O)no1)[C@H]2C(=O)Nc1ccc([Si](C)(C)C)c(C#N)c1` [(1R)-N-(3-cyano-4-(trimethylsilyl)phenyl)-2-((3-hydroxy-1,2-oxazol-5-yl)acetyl)-6-methoxy-1,2,3,4-tetrahydroisoquinoline-1-carboxamide] reads 42.8%.
